From PubChem BioAssay (NCI) come the findings set out here.

Some test systems named below: A549 NSCLC; KM12 colon; M14 melanoma; OVCAR-5 ovarian; SF-295 CNS; SF-539 CNS; SK-MEL-5 melanoma; SNB-19 CNS; TK-10 renal.
What all share (experiment): NCI tumour cell line growth inhibition, 48 h

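These data come from cells grown in 96-well plates and exposed to compound for 48 hours at five concentrations. Abbreviation: GI50, concentration required for 50% inhibition of growth. Definition used: TGI = concentration required for complete inhibition of growth.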

`Cc1ccc(Cc2c(=O)[nH]nc3ccccc23)cc1`: the TGI in the test on A549 NSCLC, with KM12 colon, in the test with M14 melanoma, with OVCAR-5 ovarian, in the test with SF-295 CNS and with SF-539 CNS was over 100 µM in each case. Besides, the TGI with SK-MEL-5 melanoma, with SNB-19 CNS and in the test with TK-10 renal was over 100 µM in each case.
For `O=[N+]([O-])c1ccc(C2=Nn3cnnc3SC2)o1`, the TGI was determined as 56.7 µM with A549 NSCLC; 47.6 µM with KM12 colon; 32.8 µM in the test with M14 melanoma; 36.8 µM with OVCAR-5 ovarian; 34.6 µM in the test on SF-295 CNS; 36.3 µM with SF-539 CNS. Further, the TGI in the test with SK-MEL-5 melanoma is 31.5 µM; in the test on SNB-19 CNS, 79 µM; with TK-10 renal it was over 100 µM.
On to `COC(=O)C1=C(O)c2cc(OC)c(OC)cc2C(c2ccc(OC)c(OC)c2)C1` (stereo unspecified), for which the TGI in the test on A549 NSCLC, in the test on KM12 colon, in the test on M14 melanoma, with OVCAR-5 ovarian, with SF-295 CNS and in the test on SF-539 CNS was over 100 µM each time. Further, the TGI in the test on SK-MEL-5 melanoma and in the test with TK-10 renal was over 100 µM each time.
On to `CC(C)c1ccc2c(c1)CC[C@@H]1[C@@](C)(C(=O)O)CCC[C@]21C`, for which the GI50 in the test on A549 NSCLC was 5.56 µM; in the test with KM12 colon, 5.44 µM; in the test on M14 melanoma, 10.4 µM; in the test on OVCAR-5 ovarian, 5.49 µM; with SF-295 CNS, 3740 nM; in the test on SK-MEL-5 melanoma it was 5.02 µM. Further, the GI50 in the test on SNB-19 CNS was 6.21 µM. Moreover, the TGI stood at 25 µM in the test with A549 NSCLC; 19.5 µM in the test with KM12 colon; 22.1 µM in the test on M14 melanoma; 25.6 µM in the test with OVCAR-5 ovarian; 17.1 µM with SF-295 CNS; 16.5 µM with SK-MEL-5 melanoma. In addition, the TGI in the test on SNB-19 CNS came to 18.6 µM.
On to `NC(=O)NC1C(c2ccccc2)=C1c1ccccc1`, for which the TGI was found to be 74.6 µM in the test on A549 NSCLC; 62.2 µM with KM12 colon; 39.4 µM with M14 melanoma; 64.4 µM in the test with OVCAR-5 ovarian; 54.6 µM in the test on SF-295 CNS; 31.2 µM in the test on SF-539 CNS. Moreover, the TGI in the test on SK-MEL-5 melanoma is 23.6 µM; in the test with SNB-19 CNS, over 100 µM; with TK-10 renal, 53.7 µM.
Regarding `Cn1c2c(c3ccccc31)C1CCCCCCC1C1C(=O)OC(=O)C21` (stereo unspecified), the TGI in the test on A549 NSCLC, in the test with KM12 colon, in the test with M14 melanoma, in the test on OVCAR-5 ovarian, with SF-295 CNS and in the test with SF-539 CNS was over 100 µM throughout. Also, the TGI in the test with SK-MEL-5 melanoma, in the test with SNB-19 CNS and in the test on TK-10 renal was over 100 µM in each case.
As for `COc1cc(C#CC(=O)OC/C=C/c2ccc3c(c2)OCO3)cc(OC)c1OC`, the TGI in the test on A549 NSCLC is over 100 µM; in the test with KM12 colon, over 100 µM; in the test on M14 melanoma it was 79.8 µM; in the test on OVCAR-5 ovarian, over 100 µM; in the test on SF-295 CNS, over 100 µM; with SF-539 CNS, 44.5 µM. The TGI was 32.8 µM in the test on SK-MEL-5 melanoma, over 100 µM in the test with SNB-19 CNS and 60.8 µM with TK-10 renal.
On to `CC(C)=CCNc1ncnc2c1ncn2C1OC(CO)C(O)C1O` (stereo unspecified), for which the GI50 in the test with A549 NSCLC was 2.85 µM; in the test on KM12 colon, 2.74 µM; in the test with M14 melanoma it was 2.85 µM; in the test with OVCAR-5 ovarian, 13.3 µM; in the test with SF-295 CNS, 671 nM; in the test on SF-539 CNS it was 2220 nM. Further, the values for the GI50 with SK-MEL-5 melanoma, with SNB-19 CNS and with TK-10 renal were 5.74 µM, 3.81 µM and 1040 nM, respectively. For the same molecule, the TGI was 299 µM in the test with A549 NSCLC; over 630 µM in the test with KM12 colon; over 766 µM in the test on M14 melanoma; over 1000 µM in the test on OVCAR-5 ovarian; 2.6 µM in the test on SF-295 CNS; 7.65 µM in the test on SF-539 CNS. Besides, the TGI was over 1000 µM in the test on SK-MEL-5 melanoma, over 201 µM in the test with SNB-19 CNS and 85.6 µM with TK-10 renal.
Take `CN(C)c1ccc(C(C=C2c3ccccc3Sc3ccccc32)=C(C#N)C#N)cc1`: the TGI in the test with A549 NSCLC, in the test with KM12 colon, with M14 melanoma, in the test with OVCAR-5 ovarian, with SF-295 CNS and in the test with SF-539 CNS was over 100 µM in each case. Further, the TGI with SK-MEL-5 melanoma, in the test on SNB-19 CNS and with TK-10 renal was over 100 µM each time.
For `Cc1ccc(NC(=O)C(=O)C(C(=O)c2ccc3ccccc3c2)C2OC(=O)c3ccccc32)cc1C` (stereo unspecified), the TGI in the test with A549 NSCLC was 82.4 µM; in the test with KM12 colon it was 47.1 µM; in the test on M14 melanoma, 32.2 µM; in the test on OVCAR-5 ovarian, 71.3 µM; in the test on SF-539 CNS, 11.4 µM; with SK-MEL-5 melanoma, 30 µM. Further, the TGI with SNB-19 CNS was 21.3 µM; in the test on TK-10 renal, 94.6 µM.
With `Cc1nn(-c2ccccc2)c2nc(N3CCOCC3)nnc12`, the TGI in the test on A549 NSCLC, in the test with KM12 colon, in the test on M14 melanoma, in the test on OVCAR-5 ovarian, in the test with SF-295 CNS and with SF-539 CNS was over 100 µM in each case. For the same molecule, the TGI in the test on SK-MEL-5 melanoma, in the test with SNB-19 CNS and in the test with TK-10 renal was over 100 µM in each case.
